Laboratory results published in paper PMC10254306, “Piplartine-Inspired 3,4,5-Trimethoxycinnamates: Trypanocidal, Mechanism of Action, and In Silico Evaluation” (Molecules, 2023).
Values joined by “and” are separate entries in the source; they are usually repeats but may differ in a detail not shown here. Equal entries are not always repeated. Where two headings read alike, the source gives them in different places.

Assays:
[1] = parameters: method as in PMID 25922266; settings: rat plasma; cited from earlier work
[2] = system: epimastigote forms of T. cruzi, Y strain; experiment: Trypanocidal activity on epimastigote forms (growth inhibition, Neubauer chamber count); type: cell-based, Trypanosoma cruzi; settings: for IC50: Trypanosoma cruzi; for Selectivity Index (SI) Epimastigote: ratio CC50 (LLC-MK2) / IC50 epimastigote
Protocol: (§1) Initially, the prepared esters were submitted to in vitro tests using the microdilution technique in 96-well plates to evaluate the trypanocidal activity against the epimastigote evolutionary form at different concentrations (200–3.12 μg/mL). Then, the compounds with the best activity were tested against the trypomastigote form of T. cruzi. In both assays, IC50 values were calculated; a compound is considered to have trypanocidal activity when IC50 <40 μM [21]. The results are expressed in Table 1.
Initially, epimastigotes were cultured and distributed in 96-well plates at a density of 10^6 cells/mL in liver infusion tryptose medium supplemented with 10% fetal bovine serum (FBS) and 1% antibiotic. Then, the cells were treated with piplartine analogues at different concentrations and incubated at 28 °C for 24 h. To quantify the growth inhibition of the parasites, a Neubauer chamber was used, and the IC50 was defined.

[3] = system: trypomastigote forms of T. cruzi, Y strain; experiment: Trypanocidal activity on trypomastigote forms (viability by counting); type: cell-based, Trypanosoma cruzi; settings: for IC50: Trypanosoma cruzi, Y strain, 24 h; for Selectivity Index (SI) Trypomastigote: ratio CC50 (LLC-MK2) / IC50 trypomastigote
Protocol: as §1
Trypomastigote forms were obtained by infecting LLC-MK2 cells with the parasite; in this way, the cells were incubated for 24 h in T-25/75 cm^2 flasks at 37 °C in an atmosphere with 5% CO2 in DMEM medium supplemented with 2% FBS and 1% antibiotic. Subsequently, the trypomastigote forms were distributed in 96-well plates treated with piplartine analogues at different concentrations (200; 100; 50; 25; 12.5; 6.25; 3.12 μg/mL) and incubated at 37 °C for 24 h. The assessment of cell viability was performed by counting, and the IC50 was defined.

[4] = system: epimastigote forms of T. cruzi; parameters: method as in doi:10.1007/s00044-008-9161-9; settings: read-out: IC50 growth of epimastigote forms; cited from earlier work
[5] = In vitro cytotoxicity, MTT assay; type: cell-based, Rhesus monkey; settings: Rhesus monkey, MTT, 24 h, read-out: LLCK-MK2 CC50
Protocol: The compounds were considered selective for the parasite when SI ≥ 10 [21]. The results are expressed in Table 2.
For the cytotoxicity analysis, the (3-[4,5-dimethylthiazol-2-yl]-2,5 diphenyl tetrazolium bromide) (MTT) assay was used, in which the LLC-MK2 cells were cultured in Dulbecco’s Modified Eagle Medium (DMEM), then exposed to the piplartine analogues at different concentrations (25–200 μg/mL) and incubated for 24 h at 37 °C. Then MTT was added, and the cells were incubated for 4 h, after which 10% sodium dodecyl sulfate was added. […] To calculate the relative cell viability, cells treated only with sterile phosphate-buffered saline were used as a negative control. The experiments were conducted in triplicates.

[6] = system: amastigote form of the parasite; parameters: method as in PMID 25880257; settings: cited from earlier work
[7] = system: epimastigote form of T. cruzi; parameters: method as in PMID 31775321; settings: cited from earlier work

| SMILES | IC50 ([2]; Y strain, 24 h) | Selectivity Index (SI) Epimastigote [2] | CC50 at 24 h [5] | CC50 at 24 h ([5]; LLC-MK2 renal epithelial cells) | further results |
| --- | --- | --- | --- | --- | --- |
| COc1cc(C=CC(=O)O)cc(OC)c1OC [3,4,5-trimethoxycinnamic acid] | – | – | – | – | bioavailability [1]: high bioavailability; oral absorption [1]: rapid oral absorption |
| O=C(Cn1ccnc1[N+](=O)[O-])NCc1ccccc1 [Benznidazole, reference compound] | 23 µg/mL and 115 µM | – | – | – | IC50 [3]: 32.3 µg/mL and 161 µM; IC50 [4]: 42.7 µM |
| COC(=O)/C=C/c1cc(OC)c(OC)c(OC)c1 [Compound 1, (E)-Methyl 3-(3,4,5-trimethoxyphenyl)acrylate] | 31.5 µg/mL and 125 µM | 4.01 | 126 µg/mL and 501 µM | – | – |
| CCOC(=O)/C=C/c1cc(OC)c(OC)c(OC)c1 [Compound 2] | 85.7 µg/mL and 322 µM | >2.3 | > 200 µg/mL and > 751 µM | – | – |
| CCCOC(=O)/C=C/c1cc(OC)c(OC)c(OC)c1 [Compound 3] | 90.1 µg/mL and 321 µM | 1.6 | 148 µg/mL and 526 µM | – | – |
| COc1cc(/C=C/C(=O)OC(C)C)cc(OC)c1OC [Compound 4] | 74.5 µg/mL and 266 µM | >2.7 | > 200 µg/mL and > 714 µM | – | – |
| CCCCCOC(=O)/C=C/c1cc(OC)c(OC)c(OC)c1 [Compound 5] | 20.2 µg/mL and 65.5 µM | >9.9 | > 200 µg/mL and > 649 µM | – | – |
| CCCCCCCCCCOC(=O)/C=C/c1cc(OC)c(OC)c(OC)c1 [Compound 6] | – | – | > 200 µg/mL and > 528 µM | – | trypanocidal activity against epimastigote form (in words) ([2]; Y strain): suppressed the trypanocidal activity; Epimastigote IC50 ([2]; Y strain, 24 h): n* |
| COc1ccc(COC(=O)/C=C/c2cc(OC)c(OC)c(OC)c2)cc1 [Compound 7] | 56.4 µg/mL and 157 µM | 3.5 | – | 196 µg/mL and 547 µM | – |
| COc1cccc(COC(=O)/C=C/c2cc(OC)c(OC)c(OC)c2)c1 [Compound 8] | 40.3 µg/mL and 112 µM | 2.5 | – | 100 µg/mL and 280 µM | IC50 [3]: 64.4 µg/mL and 180 µM; Selectivity Index (SI) Trypomastigote [3]: 1.6 |
| COc1cc(/C=C/C(=O)OCc2ccc(C)cc2)cc(OC)c1OC [Compound 9] | 61.8 µg/mL and 180 µM | 3.0 | – | 183 µg/mL and 534 µM | IC50 [3]: 39.9 µg/mL and 123 µM; Selectivity Index (SI) Trypomastigote [3]: 4.6 |
| COc1cc(/C=C/C(=O)OCc2ccccc2)cc(OC)c1OC [Compound 10] | 40 µg/mL and 122 µM | 4.6 | – | 183 µg/mL and 557 µM | IC50 [3]: 13.4 µg/mL and 40.8 µM; Selectivity Index (SI) Trypomastigote [3]: 13.7 |
| C=C(C)[C@@H]1CC=C(COC(=O)/C=C/c2cc(OC)c(OC)c(OC)c2)CC1 [Compound 12] | 70.1 µg/mL and 188 µM | 1.5 | – | 106 µg/mL and 284 µM | IC50 [3]: 38.7 µg/mL and 104 µM; Selectivity Index (SI) Trypomastigote [3]: 2.7 |
| COc1cc(C=CC(=O)OC2CC3CCC2(C)C3(C)C)cc(OC)c1OC (stereo not shown) [Compound 13] | 155 µg/mL and 414 µM | 0.5 | – | 71.2 µg/mL and 190 µM | – |
| CCOC(=O)/C=C/c1ccc(O)c(O)c1 [ethyl caffeate] | – | – | – | – | IC50 [6]: 18.3 µM |
| COC(=O)/C=C/c1ccc(O)cc1 [methyl p-coumarate] | – | – | – | – | IC50 [7]: 601 µM |
| COc1cc(/C=C/C(=O)N2CCC=CC2=O)cc(OC)c1OC [piplartine] | – | – | – | – | IC50 [4]: 21 µM |
